Test results from paper PMC8119466, “A screen of FDA-approved drugs identifies inhibitors of protein tyrosine phosphatase 4A3 (PTP4A3 or PRL-3)” (Scientific Reports, 2021).
Where a name gives a salt, the structure may show the parent alone. Read-outs that look alike come from different tables or passages of the source.

How the values were obtained:
Type in all cases: biochemical
[1] = biological target: T1, recombinant PRL-1 (Homo sapiens, UniProt Q93096); test: In vitro phosphatase assay (DiFMUP hydrolysis), PRL-1; for % Phosphatase Activity (compared to DMSO) PRL-1: test concentration or dose not given here
T1 construct: 6xHis (N, cleaved yes); made in house; host or cells: E. coli One Shot BL21 Star
T1 sequence (Q93096 1-173): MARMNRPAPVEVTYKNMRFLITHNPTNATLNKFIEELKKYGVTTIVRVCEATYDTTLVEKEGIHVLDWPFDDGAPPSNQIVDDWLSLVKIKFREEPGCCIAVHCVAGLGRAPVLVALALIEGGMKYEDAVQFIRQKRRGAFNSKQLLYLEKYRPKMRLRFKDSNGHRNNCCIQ

[2] = biological target: T2, recombinant PRL-2 (Homo sapiens, UniProt Q12974); test: In vitro phosphatase assay (DiFMUP hydrolysis), PRL-2;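 note: PRL-2 activity read as DiFMUP hydrolysis after 20 min at room temperature with drug, enzyme first pre-reduced at 4 °C for 20 min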
T2 construct: 6xHis (N, cleaved yes); made in house; host or cells: E. coli One Shot BL21 Star
T2 sequence (Q12974 1-167): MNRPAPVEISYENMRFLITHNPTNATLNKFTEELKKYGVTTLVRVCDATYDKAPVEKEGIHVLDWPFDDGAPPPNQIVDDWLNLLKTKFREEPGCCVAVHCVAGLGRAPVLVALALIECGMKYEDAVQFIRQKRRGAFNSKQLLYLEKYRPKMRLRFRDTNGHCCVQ
Description: Briefly, protein was diluted in reaction buffer and allowed to incubate at 4 °C for 20 min to allow for full reduction of the active site. DiFMUP, drug, and protein were added, and plates were incubated for 20 min at room temperature. Fluorescence intensities were measured on a Cytation 5 plate reader (Biotek) at an EX:360 nm and EM:460 nm. […] Inhibition selectivity for PRLs over a panel of other phosphatases was determined using PhosphataseProfiler (Eurofins, Cat # PP260).

[3] = biological target: T3, recombinant PRL-3 (Homo sapiens, UniProt O75365); test: In vitro phosphatase assay (DiFMUP hydrolysis), PRL-3; for % Phosphatase Activity (compared to DMSO) PRL-3: test concentration or dose not given here
T3 construct: 6xHis (N, cleaved yes); made in house; host or cells: E. coli One Shot BL21 Star
T3 sequence (O75365 whole entry): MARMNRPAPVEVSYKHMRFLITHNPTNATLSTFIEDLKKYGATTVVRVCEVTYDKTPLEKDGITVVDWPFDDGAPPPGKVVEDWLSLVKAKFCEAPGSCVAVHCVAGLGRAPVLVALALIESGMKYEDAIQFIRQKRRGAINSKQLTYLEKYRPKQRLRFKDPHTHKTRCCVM

[4] = FDA-approved drug screen, compared to DMSO
[5] = FDA-approved drug screen, activity compared to DMSO

| Molecule | % Phosphatase Activity (compared to DMSO) PRL-1 [1, 4] [%] | % Phosphatase Activity (compared to DMSO) PRL-2 [2, 4] [%] | % Phosphatase Activity (compared to DMSO) PRL-3 [3, 4] [%] | also measured |
| --- | --- | --- | --- | --- |
| CN[C@H]1C[C@@H](N)[C@H](O)[C@@H](O[C@@H]2O[C@H](CO)[C@H](O)[C@@H]3OC4(O[C@H]23)O[C@H]([C@@H](N)CO)[C@H](O)[C@H](O)[C@H]4O)[C@@H]1O (stereo partly drawn) [Hygromycin B] | 91 | 98 | 103 |  |
| O=c1oc2cc(O)ccc2s1 [Tioxolone] |  |  |  | % Phosphatase Activity (compared to DMSO) PRL-1 [1, 5]: 102%; % Phosphatase Activity (compared to DMSO) PRL-2 [2, 5]: 124%; % Phosphatase Activity (compared to DMSO) PRL-3 [3, 5]: 92% |
| CCc1cnn2c(NCc3ccc[n+]([O-])c3)cc(N3CCCC[C@H]3CCO)nc12 [Dinaciclib (SCH727965)] |  |  |  | % Phosphatase Activity (compared to DMSO) PRL-1 [1]: 87%; % Phosphatase Activity (compared to DMSO) PRL-2 [2]: 89%; % Phosphatase Activity (compared to DMSO) PRL-3 [3]: 87% |
| Spiramycin |  |  |  | % Phosphatase Activity (compared to DMSO) PRL-1 [1, 5]: 86%; % Phosphatase Activity (compared to DMSO) PRL-2 [2, 5]: 90%; % Phosphatase Activity (compared to DMSO) PRL-3 [3, 5]: 68% |
| CC1=NN(c2ccc(C)c(C)c2)C(=O)/C1=N\Nc1cccc(-c2cccc(C(=O)O)c2)c1O [Eltromobag Olamine, reference compound] |  |  |  | IC50 ([1]; […] protein, DiFMUP at KM, read-out: Calculated IC50, PRL-1 phosphatase activity): 61 ± 15 µM; IC50 ([2]; […] protein, DiFMUP at KM, read-out: Calculated IC50, PRL-2 phosphatase activity): 166 ± 22 µM; IC50 ([3]; […] protein, DiFMUP at KM, read-out: Calculated IC50, PRL-3 phosphatase activity): 27 ± 4 µM |
| CCOc1cc2ncc(C#N)c(Nc3ccc(F)c(Cl)c3)c2cc1NC(=O)/C=C/CN(C)C [Pelitinib (EKB-569)] | 111 | 120 | 97 |  |
| CCCN[C@H]1CCc2nc(N)sc2C1 [Pramipexole dihydrochloride monohydrate] |  |  |  | % Phosphatase Activity (compared to DMSO) PRL-1 [1]: 87%; % Phosphatase Activity (compared to DMSO) PRL-2 [2]: 98%; % Phosphatase Activity (compared to DMSO) PRL-3 [3]: 90% |
| COc1cc(Nc2ncc3c(n2)-c2ccc(Cl)cc2C(c2c(F)cccc2OC)=NC3)ccc1C(=O)O [Alisertib (MLN8237)] | 85 | 96 | 81 |  |
| CCOC(=O)[C@H](CCc1ccccc1)N[C@@H](C)C(=O)N1[C@H](C(=O)O)C[C@@H]2CCC[C@@H]21 [Ramipril] | 84 | 86 | 93 |  |
| O=c1sn(-c2cccc3ccccc23)c(=O)n1Cc1ccccc1 [Tideglusib] |  |  |  | % Phosphatase Activity (compared to DMSO) PRL-1 [1, 5]: 107%; % Phosphatase Activity (compared to DMSO) PRL-2 [2, 5]: 120%; % Phosphatase Activity (compared to DMSO) PRL-3 [3, 5]: 98% |
| CCCCCCNC(=O)n1cc(F)c(=O)[nH]c1=O [Carmofur] | 89 | 95 | 73 |  |
| CCCC(CCC)C(=O)O[C@H]1C[C@H]2CC[C@@H](C1)[N+]2(C)C [Anisotropine Methylbromide] | 111 | 108 | 77 |  |
| CCCCc1nc2cc(/C=C/C(=O)NO)ccc2n1CCN(CC)CC [Pracinostat (SB939)] | 96 | 87 | 80 |  |
| COc1ccc(C(Cl)=C(c2ccc(OC)cc2)c2ccc(OC)cc2)cc1 [Chlorotrianisene] | 103 | 110 | 92 |  |
| CNC(=O)c1ccc(Nc2ncc(C(F)(F)F)c(NCc3nccnc3N(C)S(C)(=O)=O)n2)cc1 [Defactinib (VS-6063, PF-04554878)] | 98 | 87 | 89 |  |
| CO/N=C(\C(=O)N[C@@H]1C(=O)N2C(C(=O)O)=C(CSc3nnnn3C)CS[C@H]12)c1csc(N)n1.CO/N=C(\C(=O)N[C@@H]1C(=O)N2C(C(=O)O)=C(CSc3nnnn3C)CS[C@H]12)c1csc(N)n1.Cl [Cefmenoxime hydrochloride] | 92 | 98 | 84 |  |
